Reference: ChEMBL document CHEMBL1139652, “6H,13H-Pyrazino[1,2-a;4,5-a']diindole analogs: probing the pharmacophore for allosteric ligands of muscarinic M2 receptors” (Bioorg Med Chem Lett, 2006)

Legend:
[1] = target: Acetylcholine receptor (Torpedo californica, UniProt P02710+P02712+P02714+P02718); assay: Displacement of (+/-)-[3H]epibatidine from muscle type nAChR of Torpedo californica in hepes buffer; format: tissue-based, Tetronarce californica
[2] = target: T1, Muscarinic acetylcholine receptor M2 (Homo sapiens, UniProt P08172); assay: Inhibition of [3H]NMS dissociation from muscarinic M2 receptor in Na,K,Pi buffer
T1 sequence (P08172 whole entry): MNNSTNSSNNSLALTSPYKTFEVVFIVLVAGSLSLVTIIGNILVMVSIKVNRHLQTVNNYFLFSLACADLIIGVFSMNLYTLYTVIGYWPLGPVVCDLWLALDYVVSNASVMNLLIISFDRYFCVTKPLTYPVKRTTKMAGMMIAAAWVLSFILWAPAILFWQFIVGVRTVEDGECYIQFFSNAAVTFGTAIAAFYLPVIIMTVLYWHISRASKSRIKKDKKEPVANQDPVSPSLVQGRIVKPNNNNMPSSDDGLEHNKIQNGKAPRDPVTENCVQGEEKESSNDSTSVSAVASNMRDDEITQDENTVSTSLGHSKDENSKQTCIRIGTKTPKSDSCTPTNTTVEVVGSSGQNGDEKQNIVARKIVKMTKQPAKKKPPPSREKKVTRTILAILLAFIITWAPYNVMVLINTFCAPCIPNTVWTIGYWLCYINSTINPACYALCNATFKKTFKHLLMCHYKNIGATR

[3] = target: T1, Muscarinic acetylcholine receptor M2; assay: Inhibition of [3H]NMS dissociation from muscarinic M2 receptor in hepes buffer
[4] = Selectivity for muscle type nAChR over muscarinic M2 receptor in hepes buffer

Acetylcholine receptor, sequence (P02710 whole entry): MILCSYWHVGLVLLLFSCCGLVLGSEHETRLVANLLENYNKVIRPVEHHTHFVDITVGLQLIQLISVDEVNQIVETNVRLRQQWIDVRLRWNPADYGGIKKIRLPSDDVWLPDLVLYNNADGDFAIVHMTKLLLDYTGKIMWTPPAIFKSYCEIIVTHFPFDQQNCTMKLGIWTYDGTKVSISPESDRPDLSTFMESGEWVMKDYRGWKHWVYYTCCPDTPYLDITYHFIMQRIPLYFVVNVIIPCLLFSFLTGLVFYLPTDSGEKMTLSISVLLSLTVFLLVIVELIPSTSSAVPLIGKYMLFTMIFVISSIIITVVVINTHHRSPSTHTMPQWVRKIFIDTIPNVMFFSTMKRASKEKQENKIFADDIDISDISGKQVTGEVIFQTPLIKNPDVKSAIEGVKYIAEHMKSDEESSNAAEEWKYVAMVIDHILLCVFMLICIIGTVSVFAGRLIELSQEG
Acetylcholine receptor, sequence (P02712 whole entry): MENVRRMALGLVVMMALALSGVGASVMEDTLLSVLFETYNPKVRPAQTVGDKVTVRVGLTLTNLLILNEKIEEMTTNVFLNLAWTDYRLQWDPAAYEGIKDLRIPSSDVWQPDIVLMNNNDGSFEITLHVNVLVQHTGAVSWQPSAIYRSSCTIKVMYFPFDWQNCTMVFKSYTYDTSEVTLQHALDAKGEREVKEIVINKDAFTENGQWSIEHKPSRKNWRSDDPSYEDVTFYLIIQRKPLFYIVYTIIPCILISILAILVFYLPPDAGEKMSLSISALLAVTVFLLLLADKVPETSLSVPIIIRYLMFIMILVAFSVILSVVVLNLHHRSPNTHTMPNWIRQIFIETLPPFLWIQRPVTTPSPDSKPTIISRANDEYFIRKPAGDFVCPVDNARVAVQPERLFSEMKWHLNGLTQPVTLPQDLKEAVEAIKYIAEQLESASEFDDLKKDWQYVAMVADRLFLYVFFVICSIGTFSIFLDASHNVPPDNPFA
Acetylcholine receptor, sequence (P02718 whole entry): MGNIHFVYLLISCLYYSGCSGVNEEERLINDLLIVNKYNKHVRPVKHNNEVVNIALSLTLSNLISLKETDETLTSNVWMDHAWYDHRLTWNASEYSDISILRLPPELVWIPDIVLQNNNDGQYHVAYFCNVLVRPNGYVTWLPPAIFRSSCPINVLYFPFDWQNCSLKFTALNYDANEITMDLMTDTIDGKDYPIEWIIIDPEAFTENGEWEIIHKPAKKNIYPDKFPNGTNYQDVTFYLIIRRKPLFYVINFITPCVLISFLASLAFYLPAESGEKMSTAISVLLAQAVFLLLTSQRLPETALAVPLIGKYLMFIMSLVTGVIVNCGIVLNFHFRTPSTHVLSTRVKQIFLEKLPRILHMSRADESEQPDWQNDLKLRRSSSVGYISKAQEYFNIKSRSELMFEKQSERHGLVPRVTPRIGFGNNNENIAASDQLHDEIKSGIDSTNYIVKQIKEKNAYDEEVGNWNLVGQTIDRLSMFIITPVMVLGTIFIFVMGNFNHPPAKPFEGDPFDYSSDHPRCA
Acetylcholine receptor, sequence (P02714 whole entry): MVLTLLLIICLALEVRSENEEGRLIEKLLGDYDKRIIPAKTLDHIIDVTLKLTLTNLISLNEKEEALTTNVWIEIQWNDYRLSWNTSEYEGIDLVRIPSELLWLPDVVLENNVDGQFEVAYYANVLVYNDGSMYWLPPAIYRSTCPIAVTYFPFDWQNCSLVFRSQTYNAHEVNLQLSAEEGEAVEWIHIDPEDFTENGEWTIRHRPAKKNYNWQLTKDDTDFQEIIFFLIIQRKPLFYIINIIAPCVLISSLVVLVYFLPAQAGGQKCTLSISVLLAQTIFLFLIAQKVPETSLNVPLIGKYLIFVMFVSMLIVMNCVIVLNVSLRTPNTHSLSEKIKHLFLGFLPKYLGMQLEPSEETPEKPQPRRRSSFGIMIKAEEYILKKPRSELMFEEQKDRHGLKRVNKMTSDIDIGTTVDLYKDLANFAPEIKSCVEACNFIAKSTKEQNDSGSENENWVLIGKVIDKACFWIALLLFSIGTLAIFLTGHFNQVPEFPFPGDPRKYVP

| Compound | Ki [1] [nM] | EC50 [2] [nM] | EC50 [3] [nM] | Selectivity ratio [4] |
| --- | --- | --- | --- | --- |
| C1=C2CN3CC[C@]45c6ccccc6N6[C@@H]7OCC=C8CN9CC[C@]%10%11c%12ccccc%12N([C@H](OC1)[C@@H]([C@H]64)[C@H]2C[C@H]35)[C@H]%10[C@H]7[C@H]8C[C@H]9%11 [CARACURINE V] | > 100000 | 437 |  |  |
| C=CC[N+]12CC[C@@]34c5ccccc5N5[C@@H]6OCC=C7C[N+]8(CC=C)CC[C@]9%10c%11ccccc%11N([C@@H]%11OCC=C(C1)[C@H](C[C@@H]32)[C@@H]%11[C@H]54)[C@H]9[C@H]6[C@H]7C[C@@H]%108 (stereo partly drawn) [DIALLYLCARACURIE V] | 1510 | 11.2 |  |  |
| C[N+]12CC[C@@]34c5ccccc5N5[C@@H]6OCC=C7C[N+]8(C)CC[C@]9%10c%11ccccc%11N([C@@H]%11OCC=C(C1)[C@H](C[C@@H]32)[C@@H]%11[C@H]54)[C@H]9[C@H]6[C@H]7C[C@@H]%108 (stereo partly drawn) [DIMETHYLCARACURIE V] | 5250 | 8.13 |  |  |
| C=CC[N+](C)(C)Cc1c2n(c3ccccc13)Cc1c(C[N+](C)(C)CC=C)c3ccccc3n1C2 | 550 | 110 | 2290 | 4.2 |
| C[N+](C)(C)Cc1c2n(c3ccccc13)Cc1c(C[N+](C)(C)C)c3ccccc3n1C2 | 331 | 229 | 11200 | 34 |
| CN(C)Cc1c2n(c3ccccc13)Cc1c(CN(C)C)c3ccccc3n1C2 | 10700 | 447 | 16600 | 1.5 |
